These results are taken from paper PMC9409351, “Differential Ganglioside and Cholesterol Depletion by Various Cyclodextrin Derivatives and Their Effect on Synaptosomal Glutamate Release” (International Journal of Molecular Sciences, 2022).

Like-named read-outs stand apart in the source and are kept apart here.

For assay [1], the system named is gangliosides (GM1, GD1a, GD1b, GT1b, GQ1b) of rat cerebral synaptosomes. As to the kind of experiment: Ganglioside depletion from synaptosomes, remaining content by capillary electrophoresis. The assay is classed as cell-based. Conditions: for IC50: rat cerebral synaptosomes, 40 min exposure. The method, then:
(§1) Adult male Wistar rats purchased from Toxi-Coop Ltd. (Budapest, Hungary) were used in the experiments. Cerebral synaptosomes were prepared according to Modi and co-workers with the following modifications. Animals were decapitated and the brain was removed rapidly. Isotonic sucrose buffer (0.32 M sucrose, 4 mM HEPES-NaOH, pH 7.4) was used to homogenize the cerebrum with a Potter S Homogenizer (B. Braun, Melsungen, Germany) with 15 strokes at 1000 rpm. The homogenate was centrifuged (1500× g, 10 min, 4 °C) and the pellet was resuspended in sucrose buffer and centrifuged with the same parameters again. The two supernatants were combined and centrifuged (20,000× g, 10 min, 4 °C) to pellet the crude synaptosomes. The resulting supernatant was discarded and the pellet was washed again with an equal volume of sucrose buffer and then pelleted by centrifugation (20,000× g, 10 min, 4 °C). Synaptosomes were stored frozen using cryopreservation buffer and the slow freezing method to preserve their physiological state and integrity. Briefly, synaptosome pellets were resuspended in isotonic sucrose buffer containing 10% DMSO (v/v) and 10% FBS (v/v). To slow down the freezing process at −80 °C, synaptosomes were placed in a 3 cm thick-walled polystyrene box with a lid. Synaptosomes were stored at −80 °C until use. Immediately prior to the experiments, synaptosomes were rapidly thawed in a 37 °C water bath and pelleted by centrifugation (20,000× g, 10 min, 4 °C) to remove the cryopreservation buffer. The pellet was resuspended in isotonic HEPES-glucose buffer (10 mM HEPES-NaOH, 130 mM NaCl, 5.4 mM KCl, 1.3 mM CaCl2, 0.9 mM MgCl2, 5.5 mM glucose, pH 7.4) and aliquoted according to the experimental design.
(§2) For all types of experiments, except for the glutamate release measurements, vehicle-treated (control) and CD-treated synaptosomes were incubated in 500 μL HEPES-glucose buffer with or without CDs, respectively, for 40 min at 37 °C. […] After incubation, the synaptosomes were centrifuged (20,000× g, 5 min, 4 °C) and used immediately for further analysis. A slightly different incubation method used in the glutamate release measurements is described in the corresponding section. Across all types of experiments, osmolarities of the CD solutions were adjusted and they were between 290 and 310 mOsm. At least three parallel measurements were carried out.
The major neuronal ganglioside (GM1, GD1a, GD1b, GT1b, GQ1b) content of the rat cerebral synaptosome samples were measured by our previously published validated method. Briefly, after the CD treatments, gangliosides were extracted from 10 mg synaptosomes by liquid–liquid extraction. Ganglioside extracts were evaporated to dryness under a gentle stream of nitrogen (Zymark TurboVap LV, Hopkinton, MA, USA) in a 37 °C water bath. The dry ganglioside extract yielded from 10 mg synaptosomes was resuspended in 60 µL water, and centrifuged (20,000× g, 5 min, 4 °C) to remove the precipitate and the supernatant was analyzed by CE.
Ganglioside analysis was performed on a P/ACE MDQ capillary electrophoresis system (Beckman Coulter Inc., Brea, CA, USA) with UV detection at 200 nm. Uncoated fused silica capillaries with 75 µm internal diameter, […], respectively (Agilent Technologies, Santa Clara, CA, USA), were used. Separation was achieved by applying +25 kV voltage in a separation buffer containing 20 mM RAMEA and 100 mM sodium borate at pH 10.0. Ganglioside depletion in the CD-treated synaptosomes was calculated as the percentage of the ganglioside content of the vehicle-treated synaptosomes.
Data were analyzed by GraphPad Prism 8 (GraphPad Software, La Jolla, CA, USA). Concentration–response curves were constructed by the nonlinear regression method. One-way ANOVA followed by Bonferroni’s post hoc test was used for the data analysis in the case of the glutamate release experiments. […]

For assay [2], the system named is cholesterol content of rat cerebral synaptosomes. Put plainly: Cholesterol depletion from synaptosomes, Cholesterol Fluorometric Assay Kit. The assay is classed as cell-based. The conditions noted are these: for Cholesterol depletion in the tested concentration range: tested concentration range 0.3–100 mM; for IC50: rat cerebral synaptosomes, 40 min exposure, 37 °C. On the procedure: as §1, §2
The cholesterol levels of the rat cerebral synaptosomes were measured with a Cholesterol Fluorometric Assay Kit (Cayman Chemical Company, Ann Arbor, MI, USA) with minor adjustments for the sample preparation. Briefly, after CD treatments, 2 mg of the synaptosomes were extracted with 10 vol chloroform–methanol 2:1 (v/v) to gain a lipid extract. The samples were centrifuged (20,000× g, 5 min, 4 °C) and then the supernatant was evaporated to dryness under a nitrogen stream (Zymark TurboVap LV) in a 37 °C water bath. The extracts were resuspended and diluted in the assay buffer (1.2 mL/mg synaptosome). Further preparation of the assay was according to the manufacturer’s protocol. Fluorescence was measured with a Varioskan LUX multimode microplate reader (Thermo Fisher Scientific, Waltham, MA, USA) at 530/590 nm. Cholesterol depletion in the CD-treated synaptosomes was calculated as the percentage of the cholesterol content of the vehicle-treated synaptosomes.
Data were analyzed by GraphPad Prism 8 (GraphPad Software, La Jolla, CA, USA). Concentration–response curves were constructed by the nonlinear regression method. One-way ANOVA followed by Bonferroni’s post hoc test was used for the data analysis in the case of the glutamate release experiments. All data are presented as means ± SEM of at least three parallel measurements. Differences were considered significant if p < 0.05.

Where [3] appears, read: total = sum of individual gangliosides, read-out: Total ganglioside depletion IC50.

As a reminder, the IC50 is the concentration at which inhibition is half-maximal. As for “randomly methylated alpha-cyclodextrin [RAMEA]”, the IC50 in assay [1] (read-out: GD1a depletion IC50) is 25.1 mM; in assay [1] (read-out: GD1b depletion IC50), 26.4 mM; in assay [1] (read-out: GM1 depletion IC50), 29.1 mM; in assay [1] (read-out: GQ1b depletion IC50), 30.3 mM; in assay [1] (read-out: GT1b depletion IC50) it was 24.2 mM; in assay [1] (setting [3]), 26 mM. Also, the “Cholesterol depletion in the tested concentration range” value in assay [2] is given as “without affecting the cholesterol content”.
Regarding “(2-hydroxypropyl)-alpha-cyclodextrin [HPACD]”, the “Ganglioside extraction at highest examined concentration” value in assay [1] (100 mM) is ~ 60%. In addition, the IC50 was found to be 72.9 mM in assay [1] (read-out: GD1a depletion IC50); 90.6 mM in assay [1] (read-out: GD1b depletion IC50); 86.7 mM in assay [1] (read-out: GM1 depletion IC50); 61.2 mM in assay [1] (read-out: GQ1b depletion IC50); 85.1 mM in assay [1] (setting [3]). For the same compound, in assay [2], the “Cholesterol depletion in the tested concentration range” value is listed as “without affecting the cholesterol content”.
Take `COC[C@H]1O[C@@H]2O[C@H]3[C@H](O)[C@@H](OC)[C@@H](O[C@H]4[C@H](O)[C@@H](OC)[C@@H](O[C@H]5[C@H](O)[C@@H](OC)[C@@H](O[C@H]6[C@H](O)[C@@H](OC)[C@@H](O[C@H]7[C@H](O)[C@@H](OC)[C@@H](O[C@H]8[C@H](O)[C@@H](OC)[C@@H](O[C@H]1[C@H](O)[C@H]2OC)O[C@@H]8COC)O[C@@H]7COC)O[C@@H]6COC)O[C@@H]5COC)O[C@@H]4COC)O[C@@H]3COC` [DIMEB, heptakis(2,6-di-O-methyl)-beta-cyclodextrin]: the “Ganglioside extraction at 10 mM” value in assay [1] (10 mM) is given as “approximately 50%”. For the same compound, in assay [1] (30 mM), the “Ganglioside extraction at 30 mM” value was “Nearly total extraction”. Further, the 50% inhibitory concentration (IC50) in assay [1] (read-out: GD1a depletion IC50) came out at 9.7 mM; in assay [1] (read-out: GD1b depletion IC50), 14.5 mM; in assay [1] (read-out: GM1 depletion IC50) it was 15 mM; in assay [1] (read-out: GQ1b depletion IC50), 11.4 mM; in assay [1] (read-out: GT1b depletion IC50), 8.7 mM; in assay [1] (setting [3]), 10.5 mM. In assay [2], the 50% inhibitory concentration (IC50) is 7.4 mM. Also, the “Cholesterol extraction at 10 mM” value in assay [2] (10 mM) was “approximately 50%”. Also, the “Cholesterol extraction at 30 mM” value in assay [2] (30 mM) was “Nearly total extraction”.
As for `CC(O)COC[C@H]1O[C@@H]2O[C@H]3[C@H](O)[C@@H](O)[C@@H](O[C@H]4[C@H](O)[C@@H](O)[C@@H](O[C@H]5[C@H](O)[C@@H](O)[C@@H](O[C@H]6[C@H](O)[C@@H](O)[C@@H](O[C@H]7[C@H](O)[C@@H](O)[C@@H](O[C@H]8[C@H](O)[C@@H](O)[C@@H](O[C@H]1[C@H](O)[C@H]2O)O[C@@H]8COCC(C)O)O[C@@H]7COCC(C)O)O[C@@H]6COCC(C)O)O[C@@H]5COCC(C)O)O[C@@H]4COCC(C)O)O[C@@H]3COCC(C)O` (stereo partly drawn) [HPBCD, (2-hydroxypropyl)-beta-cyclodextrin], the IC50 in assay [1] (40 min, read-out: GD1a depletion IC50) was found to be 83.7 mM; in assay [1] (40 min, read-out: GD1b depletion IC50), 86.6 mM; in assay [1] (40 min, read-out: GM1 depletion IC50), 80.8 mM; in assay [1] (40 min, read-out: GQ1b depletion IC50), 85.1 mM; in assay [1] (40 min, read-out: GT1b depletion IC50), 80.1 mM; in assay [1] (40 min, total = sum of individual gangliosides, read-out: Total ganglioside depletion IC50), 83.3 mM. The compound also had a half-inhibitory concentration (IC50) in assay [2] (40 min) of 33.5 mM. Further, in assay [1] (at 50% cholesterol depleting concentration), the “Ganglioside loss at 50% cholesterol depleting concentration” value is reported as ~ 5%.
